Where two headings read alike, the source gives them in different places.
Tests used:
[1] = system: anaphylaxie passive cutanée; test: Passive cutaneous anaphylaxis test in rats; assay type: in vivo, rats mâles Sprague Dawley; conditions: for ED50: read-out: DE 50 voie po
Method: L'activité antiallergique a été déterminée dans le test de l'anaphylaxie passive cutanée de la façon suivante. On administre à des rats mâles Sprague Dawley par voie intradermique 0,1 ml de sérum riche en IgE. Ce sérum a été fabriqué en sensibilisant des rats Sprague-Dawley par une injection ip d'ovalbumine et de suspension de Bordetella pertusis suivie 20 j après par une nouvelle injection d'ovalbumine. 24 heures après administration du sérum on injecte par voie iv 0,5 ml d'une solution contenant 8,25 mg/kg d'ovalbumine et 26,4 mg/kg de bleu d'Evans dans un tampon pH 7,05. Au bout de 30 mn les animaux sont sacrifiés; chaque papule est découpée, pesée et mise à incuber pendant 4 j à 37°C dans 15 g de formamide. La quantité de bleu d'Evans contenue dans chaque papule est déterminée par la mesure de la densité optique du mélange. Le produit à tester est administré par voie orale ou intrapéritonéale en suspension homogène en présence de tween 80, 10 mn avant l'injection déclenchante. Son activité est appréciée par le pourcentage de diminution de la quantité de bleu d'Evans ayant diffusé dans la papule. Les DE 50 de certains produits de la présente invention sont indiquées dans le tableau V.

souris Swiss = test: Oral (intragastric) toxicity, mortality in mice; assay type: in vivo; conditions: mouse, solvent as in the source
Description: La mortalité induite par ces substances a été déterminée chez la souris Swiss exempte d'organismes pathogènes spécifiques. Les animaux sont stabulés en salle climatisée 24 à 48 heures avant le début de l'expérimentation. Les substances sont administrées soit par voie intragastrique en solution dans de l'huile d'olive ou du tween, soit par voie intrapéritonéale en solution dans du tween. Les résultats sont exprimés dans les tableaux I et II par le pourcentage de mortalité en fonction de la dose administrée ou par la dose induisant 50 % de mortalité (DL 50) déterminée par la méthode de Bliss.

motilité chez la souris = test: Motility (actimeter) in mice, sedative effect; assay type: in vivo; conditions: ip route, mouse, Litchfield Wilcoxon method
Description: L'effet des substances sur la motilité est appréciée chez la souris en utilisant un actimètre. Les animaux sont placés dans la cage d'activométrie et à partir du nombre de déplacements enregistrés par l'appareil,on obtient pour chaque dose considérée le pourcentage de l'effet observé par rapport au lot témoin. Ces pourcentages sont reportés sur un papier à l'échelle log-probit et la méthode de Litchfield Wilcoxon permet de calculer la dose efficace 50 sédative. Le tableau VI donne les DE 50 sédatives pour un certain nombre de produits faisant l'objet de l'invention.

[2] = oral route, rat, given 10 min before challenge, decrease of Evans blue in the papule, limits in brackets

Molecule: CN(C)CCCN1c2ccccc2Sc2ccc(Cl)cc21 [Chlorpromazine, reference compound]
- ED50 ([1]; Rattus norvegicus, po): 4.9 mg/kg

Molecule: CC(CN1c2ccccc2Sc2ccccc21)N(C)C (stereo not shown) [Prométhazine, reference compound]
- ED50 [1, 2]: 2.9 mg/kg

Molecule: (((trifluorométhyl-3 phényl)-4 pipérazinyl)-2 éthyl)-6 N-pyridylidène-3 benzodioxol-1,3 yl-5 amine [COR 3415]
- % de mortalité en fonction de la dose exprimée en mg/kg (souris Swiss; dose 500 mg/kg): 0%
- % de mortalité en fonction de la dose exprimée en mg/kg (souris Swiss; dose 750 mg/kg): 50%
- % de mortalité en fonction de la dose exprimée en mg/kg (souris Swiss; dose 1000 mg/kg): 60%
- % de mortalité en fonction de la dose exprimée en mg/kg (souris Swiss; dose 2000 mg/kg): 70%
- DE 50 voie po [1, 2]: 20 mg/kg

Molecule: (phényl-4pipérazinyléthyl)-2 N-pyridylidène-3 aniline [COR 3412]
- DE 50 sédation (motilité chez la souris): 4 mg/kg
- DE 50 voie ip ([1]; intraperitoneal route, rat, given 10 min before challenge, decrease of Evans blue in the papule, limits in brackets): 7,52 (3,31 - 17,38) mg/kg
- DE 50 voie po [1, 2]: 11,9 (7,9 - 18,2) mg/kg
